Assay results from patent publication US4533662A, “2-Acylaminomethyl-1,4-benzodiazepine compounds and analgesic use” (Kali-Chemie Pharma GmbH, priority 1980, dated 1985).
Counter-ions that a name gives are not always drawn.

Legend:
[1] = system: mice; experiment: Determination of the minimum toxic dose in mice; assay type: in vivo, male mice; conditions: p.o., observed 3 hours, deaths and symptoms up to 24 hours; maximum dose 300 mg./kg.
Procedure: 1. Determination of the minimum toxic dose.
Maximum doses of 300 mg./kg. of the compound to be tested are administered per os to male mice of a weight of 20 g. to 25 g. The animals are carefully observed for any toxicity symptoms during 3 hours. In addition thereto all symptoms and deaths are registered for a period of time of 24 hours after administration of the drug. Any accompanying symptoms are also observed and registered. When death or toxic symptoms are observed, more and more decreasing doses are administered to other mice, until no more toxic symptoms are encountered. The lowest dose which causes toxic symptoms is given as the minimum toxic dose.

[2] = system: rats; experiment: Arthritis pain test with rats; assay type: in vivo, Male rats of the strain OFA; conditions: Rattus norvegicus, po, 3 hours after administration; protection (no or one squeak) in 50% of animals; read-out: Suppression of arthritis pain in rats ED50
Procedure: 2. Arthritis pain test with rats.
Male rats of the strain OFA weighing 160 g. to 180 g. are anesthesized by intraperitoneal administration of 20 mg./kg. of pentobarbital sodium. 0.1 ml. of suspension of Mycobacterium Smegmae (S I043) in paraffin oil (0.6 mg. of Mycobacterium in 0.1 ml. of paraffin oil) are injected intracutaneously into the left hind paw. Fourteen days thereafter, when a pronounced secondary arthritis has developed particularly in the right hind paw, the effects of the compound to be tested are investigated. 30 minutes before the administration of the compound to be tested, a control measurement is carried out by bending three times the ankle joint of the right hind paw and the number of squeaks produced by the animal are counted. […] Three hours after oral administration of the compound to be tested, the bending procedure is repeated. Animals which emit only one squeak or none at all, are considered to be protected against pain. Between 9 and 20 rats are tested per dose and the ED50 (95% confidence limit) is determined according to the method of Litchfield and Wilcoxon (1949). The dose which achieves protection in 50% of the treated animals is designated as the ED50.

[3] = system: mice; experiment: Tail flick test with mice; assay type: in vivo, male and female mice; conditions: Mus musculus, sc, 0.5 h; s.c., 30 min after administration; reaction time 75% longer in 50% of animals
Procedure: 3. Tail flick test with mice.
The method is based on the procedure described by d'Amour and Smith in 1941. In contrast thereto there are used, in place of rats, fed male and female mice of a body weight of 16 g. to 25 g. 30 minutes before treatment with the compound to be tested each mouse is placed into a separate cylindrical container of such a size that the mouse cannot turn around and cannot move forward. Its tail extends outwardly of the container while resting in a narrow trough. A specific spot of the tail of each animal (at a distance of about 35 mm. from the tail root) is exposed to the heat of radiation of a lamp of known strength and temperature. The lamp is positioned directly underneath the tail. The time in seconds which the mouse needs in order to jerk the tail out of the range of the light ray, is determined twice, once 30 minutes and another time 15 minutes before the subcutaneous administration of the compound (10 mg./kg) to be tested. Mice, the reaction time of which deviates by more than 25%, are eliminated and disregarded. The reaction times are again measured 15 minutes and 30 minutes after administration. An increase in the reaction times by more than 75% of the average reaction time values measured before administration of the test compound to the same mouse is considered an analgesic effect. […] The ED50 is calculated according to the method of Litchfield and Wilcoxon (1949).

## COc1ccc(C(=O)NCC2CN=C(c3ccc(F)cc3)c3ccccc3N2C)cc1 (centres unmarked) [Example 40]
[1]
  Minimum toxic dose in mice: > 300 mg/kg
[2]
  ED50: 11 mg/kg

## CCN1c2ccccc2C(c2ccccc2F)=NCC1CNC(=O)c1ccc(C(F)(F)F)cc1 (centres unmarked) [Example 154]
[2]
  ED50: 2 mg/kg

## CN1c2ccccc2C(c2ccccc2F)=NCC1CNC(=O)c1ccc(C#N)cc1 (centres unmarked) [Example 29]
[1]
  Minimum toxic dose in mice: 300 mg/kg
[2]
  ED50: 1.7 mg/kg
[3]
  ED50: 21 mg/kg

## COc1ccc(CC(=O)NCC2CN=C(c3ccccc3)c3cc(Cl)ccc3N2C)cc1OC (centres unmarked) [Example 112]
[1]
  Minimum toxic dose in mice: 50 mg/kg
[2]
  ED50: 10 mg/kg
[3]
  ED50: 20 mg/kg

## COc1ccc2c(c1)N(C)C(CNC(=O)c1ccccc1)CN=C2c1ccc(F)cc1 (centres unmarked) [Example 2, 8-Methoxy-1-methyl-2-benzoyl amino methyl-5-(4'-fluorophenyl)-1H-2,3-dihydro-1,4-benzo diazepine]
[1]
  Minimum toxic dose in mice: 50 mg/kg
[2]
  ED50: 2 mg/kg
[3]
  ED50: 0.64 mg/kg

## CN1c2cc3c(cc2C(c2ccccc2)=NCC1CNC(=O)c1ccccc1)OCO3 (centres unmarked) [Example 49]
[1]
  Minimum toxic dose in mice: 100 mg/kg
[2]
  ED50: 2.5 mg/kg
[3]
  ED50: 0.56 mg/kg

## CN1c2ccccc2C(c2ccccc2)=NCC1CNC(=O)c1ccccc1 (centres unmarked) [Example 1, 1-Methyl-2-benzoyl amino methyl-5-phenyl-1H-2,3-dihydro-1,4-benzo diazepine]
[1]
  Minimum toxic dose in mice: > 300 mg/kg
[2]
  ED50: 19 mg/kg
[3]
  ED50: 0.52 mg/kg

## COc1ccc(C(=O)NCC2CN=C(c3ccccc3)c3ccccc3N2C)cc1 (centres unmarked) [Example 20]
[1]
  Minimum toxic dose in mice: 300 mg/kg
[2]
  ED50: ~4 mg/kg
[3]
  ED50: 4.6 mg/kg

## COc1ccc(C(=O)NCC2CN=C(c3ccccc3F)c3ccccc3N2C)cc1 (centres unmarked) [Example 32]
[1]
  Minimum toxic dose in mice: 300 mg/kg
[2]
  ED50: 1.7 mg/kg
[3]
  ED50: 4.2 mg/kg

## CN1c2ccccc2C(c2ccccc2)=NCC1CNC(=O)c1ccc(Cl)c(Cl)c1 (centres unmarked) [Example 19, 1-Methyl-2-(3,4-dichlorobenzoylaminomethyl)-5-phenyl-1H--2,3-dihydro-1,4-benzo diazepine hydrochloride]
[1]
  Minimum toxic dose in mice: > 300 mg/kg
[2]
  ED50: ~2.3 mg/kg
[3]
  ED50: 1 mg/kg

## Cc1ccc2c(c1)C(c1ccccc1F)=NCC(CNC(=O)c1ccccc1)N2C (centres unmarked) [Example 47]
[1]
  Minimum toxic dose in mice: > 300 mg/kg
[2]
  ED50: ~13 mg/kg
[3]
  ED50: 5.6 mg/kg

## COc1ccc2c(c1)N(C)C(CNC(=O)c1ccccc1)CN=C2c1ccc(Cl)cc1Cl (centres unmarked) [Example 4, 8-Methoxy-1-methyl-2-benzoyl amino methyl-5-(2',4'-dichlorophenyl)-1H-2,3-dihydro-1,4-benzo diazepine]
[1]
  Minimum toxic dose in mice: 10 mg/kg
[2]
  ED50: 0.5 mg/kg
[3]
  ED50: 0.07 mg/kg

## CN1c2ccccc2C(c2ccccc2)=NCC1CNC(=O)c1ccc(Cl)cc1Cl (centres unmarked) [Example 18]
[1]
  Minimum toxic dose in mice: > 300 mg/kg
[2]
  ED50: 7.5 mg/kg

## COc1ccc2c(c1)N(C)C(CNC(=O)c1ccccc1)CN=C2c1cccc(C(F)(F)F)c1 (centres unmarked) [Example 55]
[2]
  ED50: 10 to 18 mg/kg
[3]
  ED50: 5.6 to 10 mg/kg

## CN1c2ccccc2C(c2ccccc2F)=NCC1CNC(=O)Cc1ccccc1Cl (centres unmarked) [Example 117]
[1]
  Minimum toxic dose in mice: > 300 mg/kg
[2]
  ED50: 6 mg/kg
[3]
  ED50: 13 mg/kg

## COc1ccc2c(c1)N(C)C(CNC(=O)c1ccccc1)CN=C2c1cccc(F)c1 (centres unmarked) [Example 58]
[1]
  Minimum toxic dose in mice: 300 mg/kg
[2]
  ED50: ~18 mg/kg
[3]
  ED50: 1.6 mg/kg

## CN1c2cc(F)ccc2C(c2ccccc2)=NCC1CNC(=O)c1ccccc1 (centres unmarked) [Example 59]
[1]
  Minimum toxic dose in mice: 300 mg/kg
[2]
  ED50: 9.7 mg/kg
[3]
  ED50: 1 mg/kg

## COc1ccc(CC(=O)NCC2CN=C(c3ccccc3)c3cc4c(cc3N2C)OCO4)cc1OC (centres unmarked) [Example 113]
[1]
  Minimum toxic dose in mice: 100 mg/kg
[2]
  ED50: 18 to 32 mg/kg
[3]
  ED50: < 5.6 mg/kg

## CN1c2ccccc2C(c2ccccc2F)=NCC1CNC(=O)c1ccc(C(F)(F)F)cc1 (centres unmarked) [Example 33]
[1]
  Minimum toxic dose in mice: > 300 mg/kg
[2]
  ED50: 5.6 to 10 mg/kg
[3]
  ED50: 1.4 mg/kg

## CN1c2ccccc2C(c2ccccc2)=NCC1CNC(=O)c1ccc([N+](=O)[O-])cc1 (centres unmarked) [Example 28]
[1]
  Minimum toxic dose in mice: > 300 mg/kg
[2]
  ED50: 0.6 mg/kg

## COc1cccc(C(=O)NCC2CN=C(c3ccccc3F)c3ccccc3N2C)c1 (centres unmarked) [Example 31]
[1]
  Minimum toxic dose in mice: > 300 mg/kg
[2]
  ED50: 10 to 18 mg/kg
[3]
  ED50: 1.8 mg/kg

## CCN1c2ccccc2C(c2ccccc2)=NCC1CNC(=O)c1ccc(C(F)(F)F)cc1 (centres unmarked) [Example 155]
[2]
  ED50: ~2 mg/kg

## Cc1ccc(C(=O)NCC2CN=C(c3ccccc3)c3ccccc3N2C)cc1 (centres unmarked) [Example 25]
[2]
  ED50: 3.2 mg/kg
[3]
  ED50: 2.5 mg/kg

## CN1c2ccccc2C(c2ccccc2F)=NCC1CNC(=O)c1cccc(C#N)c1 (centres unmarked) [Example 35]
[2]
  ED50: 9 mg/kg
[3]
  ED50: 13 mg/kg

## COc1ccc2c(c1)N(C)C(CNC(=O)c1ccccc1)CN=C2c1ccccc1F (centres unmarked) [Example 60]
[1]
  Minimum toxic dose in mice: 300 mg/kg
[2]
  ED50: 3.5 mg/kg
[3]
  ED50: 0.32 mg/kg
